Measurements: patent US8303989B2, “Compositions and methods for increasing the oral absorption of antimicrobials” (International Health Management Associates, Inc., priority 2000, dated 2012)

Key:
[1] = Plasma concentration of meropenem in rats after intraduodenal administration; assay type: in vivo, rat; settings: control: meropenem reconstituted per manufacturer, ID catheter, saline flush, no Capmul
Description: Meropenem was infused as a solution through an intraduodenal catheter followed by 0.2 ml. Capmul chase and a saline flush. The carrier formulation was meropenem in calcium-carrageenen to a final concentration of approximately 55% meropenem by weight. Two rats were dosed through a duodenum catheter and plasma samples were collected through 4 hours post dosage. For comparison purposes, a control group received meropenem reconstituted according to the manufacturers instructions, and infused as a solution through ID catheter followed by a saline flush.
Two fasted rats were dosed through a duodenal catheter and plasma samples were collected through 4 hours post dosage. […] A third rat expired prior to dosage, possibly due to anesthesia required for surgery. Rat #1 expired at 4 hours, possibly due to the effects of prolonged anesthesia and blood collection.

[2] = Plasma ceftriaxone pharmacokinetics after intravenous administration to rats; assay type: in vivo, rat; settings: i.v. 20 mg CTX/kg, no capmul
Description: These rats were anesthetized with 5.0 mg/100 g of pentobarbital by intraperitoneal injection. […] Blood samples were collected through the jugular vein catheter at predetermined time intervals.
For comparison purposes, about 20 mg/kg of CTX was administered (i.v.) to four rats.

in vivo = settings: male, Sprague-Dawley, rat, plasma, other: intraduodenal (i.d.)
Description: (§1) At specific time intervals, 0.6 ml of blood was taken from each rat and centrifuged. About 0.2 ml of the blood plasma was then analyzed for CTX by HPLC.
(§2) To determine absorption from the intestine, male Sprague Dawley rats weighing 250-300 g with free access to water were fasted for about 18 hours prior to the experiment. These rats were anesthetized and maintained with Ketamine/Xlazine ((60 mg/kg)/(80 mg/kg)) by intraperitoneal injection. The small intestine was exposed by a midline abdominal incision. A small incision was made in the stomach to insert a polyethylene tube (i.d. 0.76 mm, o.d. 1.22 mm, Clay Adams) toward the duodenum, which was closed at the exposed end by a stopcock to prevent drainage of drug solution from the duodenum. Ceftriaxone and oral formulations of CTX were dissolved in distilled water to achieve a final concentration of 40 mg CTX eq./kg and injected into the duodenum using the tube. Then 0.2 ml mono- and diglyceride mixture (Capmul) was coadministered into the duodenum using the intraduodenal tube. Blood samples were taken with a heparinized syringe through the jugular vein catheter at predetermined intervals.
(§3) The concentration of ceftriaxone in the plasma was determined by HPLC. Blood samples were centrifuged for 5 min at 5,000 rpm and 0.2 ml of plasma was taken into the microtube. 0.2 ml plasma was diluted by 0.2 ml of distilled water, and then 0.8 ml of acetonitrile was added for protein removal. The resulting suspensions were centrifuged for 10 min at 12,000 rpm and 50 μl of the clear supernatant was used for HPLC analysis. […] Percent bioavailability was calculated as follows: % BA=(AUC i.d./AUC i.v.)×(Dose i.v./Dose i.d.)×100
(§4) As a control, about 40 mg/kg of CTX was i.d. co-administered with 0.2 ml of capmul to four rats. […] At specific time intervals, 0.6 ml of blood was taken from each rat and centrifuged. About 0.2 ml of the blood plasma was then analyzed for CTX by HPLC.

[3] = Plasma ceftriaxone (CTX) pharmacokinetics after intraduodenal (i.d.) administration to rats; settings: for BA00 / BA0-4 hr: i.d. 40 mg CTX eq/kg with capmul chase vs i.v. 20 mg CTX/kg
Description: as §1, §2, §3, §4

[4] = Table 5, rats, i.d. 40 mg CTX eq/kg, 0.2 ml capmul chase
[5] = Table 6, rats, i.d. 40 mg CTX eq/kg, 0.2 ml capmul chase

C[C@@H](O)[C@H]1C(=O)N2C(C(=O)O)=C(S[C@@H]3CN[C@H](C(=O)N(C)C)C3)[C@H](C)[C@H]12 [meropenem]
absorption [1]: not absorbed
blood concentrations [1]: undetectable

CO/N=C(\C(=O)N[C@@H]1C(=O)N2C(C(=O)O)=C(CSc3nc(=O)c(O)nn3C)CS[C@H]12)c1csc(N)n1 [CTX, ceftriaxone]
AUC00 ([2]; Table 5, rats): 188.0 ± 6.4 μghr/ml
AUC00 ([2]; Table 6, rats): 188.0 ± 6.4 μghr/ml
concentration at 30 min (in vivo; 40 mg CTX eq./kg): 10000 ng/mL
concentration at 60 min (in vivo; 40 mg CTX eq./kg): 11000 ng/mL
concentration at 90 min (in vivo; 40 mg CTX eq./kg): 9000 ng/mL
concentration at 120 min (in vivo; 40 mg CTX eq./kg): 7000 ng/mL
concentration at 180 min (in vivo; 40 mg CTX eq./kg): 6000 ng/mL
concentration at 240 min (in vivo; 40 mg CTX eq./kg): 5000 ng/mL
Cmax (in vivo; 40 mg CTX eq/kg): 17200 ng/mL
Tmax (in vivo; 40 mg CTX eq/kg): 1 h
BA00 ([3]; Table 5, rats): 13.9%
BA0-4 hr ([3]; Table 5, rats): 9.4%
AUC00 [3, 4]: 52.3 ± 32.4 μghr/ml
AUG0-4 hr [3, 4]: 31.7 ± 12.4 μghr/ml
BA00 ([3]; Table 6, rats): 13.9%
BA0-4 hr ([3]; Table 6, rats): 9.4%
AUC00 [3, 5]: 52.3 ± 32.4 μghr/ml
AUC0-4 hr [3, 5]: 31.7 ± 12.4 μghr/ml
Cmax [3, 5]: 17200 ng/mL
